Source: ChEMBL document CHEMBL5724914, “Linking interpersonal differences in gut microbiota composition and drug biotransformation activity” (2024)

Assay: (§1) The drug is tested on Z-029 corresponding to rat gut metagenome with ENA study accession number: PRJEB37062 and ENA sample accession number: ERS12561828 for biotransformation under anaerobic condition. The drug concentrations were measured over 9 timepoints collected between 0 and 24 hours of incubation by liquid-chromatography-coupled mass spectrometry (LC–MS)
Conditions: 2 µM
Also: call rule not given here.

| SMILES | Bacterial Biotransformation |
| --- | --- |
| Clc1ccc(Cn2c(CN3CCCC3)nc3ccccc32)cc1 [CLEMIZOLE] | Compound NOT metabolized |
| COc1cc2c(c(OC)c1OC)-c1ccc(OC)c(=O)cc1[C@@H](NC(C)=O)CC2 [COLCHICINE] | Compound NOT metabolized |

Assay: as §1, with “on Z-022” for “on Z-029”, “to mouse” for “to rat”, “number: ERS12561821” for “number: ERS12561828”
Conditions: 2 µM

| SMILES | Bacterial Biotransformation |
| --- | --- |
| Clc1ccc(Cn2c(CN3CCCC3)nc3ccccc32)cc1 [CLEMIZOLE] | Compound NOT metabolized |
| COc1cc2c(c(OC)c1OC)-c1ccc(OC)c(=O)cc1[C@@H](NC(C)=O)CC2 [COLCHICINE] | Compound metabolized |

Assay: as §1, with “on Z-017” for “on Z-029”, “to mouse” for “to rat”, “number: ERS12561816” for “number: ERS12561828”
Conditions: 2 µM

| SMILES | Bacterial Biotransformation |
| --- | --- |
| Clc1ccc(Cn2c(CN3CCCC3)nc3ccccc32)cc1 [CLEMIZOLE] | Compound NOT metabolized |
| COc1cc2c(c(OC)c1OC)-c1ccc(OC)c(=O)cc1[C@@H](NC(C)=O)CC2 [COLCHICINE] | Compound NOT metabolized |

Assay: as §1, with “on Z-006” for “on Z-029”, “to mouse” for “to rat”, “number: ERS12561806” for “number: ERS12561828”
Conditions: 2 µM

| SMILES | Bacterial Biotransformation |
| --- | --- |
| Clc1ccc(Cn2c(CN3CCCC3)nc3ccccc32)cc1 [CLEMIZOLE] | Compound NOT metabolized |
| COc1cc2c(c(OC)c1OC)-c1ccc(OC)c(=O)cc1[C@@H](NC(C)=O)CC2 [COLCHICINE] | Compound NOT metabolized |

Assay: as §1, with “Z-005” for “Z-029”, “to” for “to rat gut”, “ERS12561805” for “ERS12561828”
Conditions: 2 µM

| SMILES | Bacterial Biotransformation |
| --- | --- |
| Clc1ccc(Cn2c(CN3CCCC3)nc3ccccc32)cc1 [CLEMIZOLE] | Compound NOT metabolized |
| COc1cc2c(c(OC)c1OC)-c1ccc(OC)c(=O)cc1[C@@H](NC(C)=O)CC2 [COLCHICINE] | Compound metabolized |

Assay: as §1, with “Z-004” for “Z-029”, “to” for “to rat gut”, “ERS12561804” for “ERS12561828”
Conditions: 2 µM

| SMILES | Bacterial Biotransformation |
| --- | --- |
| Clc1ccc(Cn2c(CN3CCCC3)nc3ccccc32)cc1 [CLEMIZOLE] | Compound NOT metabolized |
| COc1cc2c(c(OC)c1OC)-c1ccc(OC)c(=O)cc1[C@@H](NC(C)=O)CC2 [COLCHICINE] | Compound NOT metabolized |

Assay: as §1, with “on WLS-350” for “on Z-029”, “to human” for “to rat”, “number: ERS12561789” for “number: ERS12561828”
Conditions: 2 µM

| SMILES | Bacterial Biotransformation |
| --- | --- |
| Clc1ccc(Cn2c(CN3CCCC3)nc3ccccc32)cc1 [CLEMIZOLE] | Compound metabolized |
| COc1cc2c(c(OC)c1OC)-c1ccc(OC)c(=O)cc1[C@@H](NC(C)=O)CC2 [COLCHICINE] | Compound NOT metabolized |

Assay: as §1, with “on WLS-220” for “on Z-029”, “to human” for “to rat”, “number: ERS12561769” for “number: ERS12561828”
Conditions: 2 µM

| SMILES | Bacterial Biotransformation |
| --- | --- |
| Clc1ccc(Cn2c(CN3CCCC3)nc3ccccc32)cc1 [CLEMIZOLE] | Compound NOT metabolized |
| COc1cc2c(c(OC)c1OC)-c1ccc(OC)c(=O)cc1[C@@H](NC(C)=O)CC2 [COLCHICINE] | Compound metabolized |

Assay: as §1, with “on WLS-069” for “on Z-029”, “to human” for “to rat”, “number: ERS12561748” for “number: ERS12561828”
Conditions: 2 µM

| SMILES | Bacterial Biotransformation |
| --- | --- |
| Clc1ccc(Cn2c(CN3CCCC3)nc3ccccc32)cc1 [CLEMIZOLE] | Compound metabolized |
| COc1cc2c(c(OC)c1OC)-c1ccc(OC)c(=O)cc1[C@@H](NC(C)=O)CC2 [COLCHICINE] | Compound metabolized |

Assay: as §1, with “on WLS-052” for “on Z-029”, “to human” for “to rat”, “number: ERS12561747” for “number: ERS12561828”
Conditions: 2 µM

| SMILES | Bacterial Biotransformation |
| --- | --- |
| Clc1ccc(Cn2c(CN3CCCC3)nc3ccccc32)cc1 [CLEMIZOLE] | Compound metabolized |
| COc1cc2c(c(OC)c1OC)-c1ccc(OC)c(=O)cc1[C@@H](NC(C)=O)CC2 [COLCHICINE] | Compound NOT metabolized |

Conditions: human gut metagenome, 24 h, 2 µM

| SMILES | Bacterial Biotransformation |
| --- | --- |
| Clc1ccc(Cn2c(CN3CCCC3)nc3ccccc32)cc1 [CLEMIZOLE] | Compound metabolized |
| COc1cc2c(c(OC)c1OC)-c1ccc(OC)c(=O)cc1[C@@H](NC(C)=O)CC2 [COLCHICINE] | Compound NOT metabolized |

Conditions: human gut metagenome, 24 h, 2 µM
Remark: another data set of the same source

| SMILES | Bacterial Biotransformation |
| --- | --- |
| Clc1ccc(Cn2c(CN3CCCC3)nc3ccccc32)cc1 [CLEMIZOLE] | Compound metabolized |
| COc1cc2c(c(OC)c1OC)-c1ccc(OC)c(=O)cc1[C@@H](NC(C)=O)CC2 [COLCHICINE] | Compound NOT metabolized |

Conditions: human gut metagenome, 24 h, 2 µM
Remark: another data set of the same source

| SMILES | Bacterial Biotransformation |
| --- | --- |
| Clc1ccc(Cn2c(CN3CCCC3)nc3ccccc32)cc1 [CLEMIZOLE] | Compound metabolized |
| COc1cc2c(c(OC)c1OC)-c1ccc(OC)c(=O)cc1[C@@H](NC(C)=O)CC2 [COLCHICINE] | Compound NOT metabolized |

Conditions: human gut metagenome, 24 h, 2 µM
Remark: another data set of the same source

| SMILES | Bacterial Biotransformation |
| --- | --- |
| Clc1ccc(Cn2c(CN3CCCC3)nc3ccccc32)cc1 [CLEMIZOLE] | Compound NOT metabolized |
| COc1cc2c(c(OC)c1OC)-c1ccc(OC)c(=O)cc1[C@@H](NC(C)=O)CC2 [COLCHICINE] | Compound metabolized |

Conditions: human gut metagenome, 24 h, 2 µM
Remark: another data set of the same source

| SMILES | Bacterial Biotransformation |
| --- | --- |
| Clc1ccc(Cn2c(CN3CCCC3)nc3ccccc32)cc1 [CLEMIZOLE] | Compound metabolized |
| COc1cc2c(c(OC)c1OC)-c1ccc(OC)c(=O)cc1[C@@H](NC(C)=O)CC2 [COLCHICINE] | Compound metabolized |

Conditions: human gut metagenome, 24 h, 2 µM
Remark: another data set of the same source

| SMILES | Bacterial Biotransformation |
| --- | --- |
| Clc1ccc(Cn2c(CN3CCCC3)nc3ccccc32)cc1 [CLEMIZOLE] | Compound NOT metabolized |
| COc1cc2c(c(OC)c1OC)-c1ccc(OC)c(=O)cc1[C@@H](NC(C)=O)CC2 [COLCHICINE] | Compound metabolized |

Conditions: human gut metagenome, 24 h, 2 µM
Remark: another data set of the same source

| SMILES | Bacterial Biotransformation |
| --- | --- |
| Clc1ccc(Cn2c(CN3CCCC3)nc3ccccc32)cc1 [CLEMIZOLE] | Compound metabolized |
| COc1cc2c(c(OC)c1OC)-c1ccc(OC)c(=O)cc1[C@@H](NC(C)=O)CC2 [COLCHICINE] | Compound metabolized |

Conditions: human gut metagenome, 24 h, 2 µM
Remark: another data set of the same source

| SMILES | Bacterial Biotransformation |
| --- | --- |
| Clc1ccc(Cn2c(CN3CCCC3)nc3ccccc32)cc1 [CLEMIZOLE] | Compound metabolized |
| COc1cc2c(c(OC)c1OC)-c1ccc(OC)c(=O)cc1[C@@H](NC(C)=O)CC2 [COLCHICINE] | Compound metabolized |

Conditions: human gut metagenome, 24 h, 2 µM
Remark: another data set of the same source

| SMILES | Bacterial Biotransformation |
| --- | --- |
| Clc1ccc(Cn2c(CN3CCCC3)nc3ccccc32)cc1 [CLEMIZOLE] | Compound NOT metabolized |
| COc1cc2c(c(OC)c1OC)-c1ccc(OC)c(=O)cc1[C@@H](NC(C)=O)CC2 [COLCHICINE] | Compound metabolized |

Conditions: human gut metagenome, 24 h, 2 µM
Remark: another data set of the same source

| SMILES | Bacterial Biotransformation |
| --- | --- |
| Clc1ccc(Cn2c(CN3CCCC3)nc3ccccc32)cc1 [CLEMIZOLE] | Compound metabolized |
| COc1cc2c(c(OC)c1OC)-c1ccc(OC)c(=O)cc1[C@@H](NC(C)=O)CC2 [COLCHICINE] | Compound NOT metabolized |
